Assay results taken from ChEMBL document CHEMBL3272016, “Potential inhibitors of collagen biosynthesis. 5,5-Difluoro-DL-lysine and 5,5-dimethyl-DL-lysine and their activation by lysyl-tRNA ligase” (J Med Chem, 1977).
Calls of active or inactive are those of the source. The rule behind the calls is not given here.

Columns and labels:
[1] = Dissociation constant, pKa of the compound; format: physicochemical
P388 [2] = test: Cytotoxicity against mouse P388 cells assessed as growth inhibition at 0.5 mM after 72 hrs by hemocytometry; format: functional; conditions: P388, 72 h, read-out: GI
Mus musculus [3] = species on record: Mus musculus; test: Inhibition of peptidyl lysine hydroxylase in mouse L929 fibroblasts assessed as release of [3H] as [3H]OH from [4,5-3H]lysylprotocollagen measured per mg of protein at 0.10 mM (reference value: 1228 cpm)
Mus musculus [4] = species on record: Mus musculus; test: Inhibition of peptidyl lysine hydroxylase in mouse L929 fibroblasts assessed as release of [3H] as [3H]OH from [4,5-3H]lysylprotocollagen measured per mg of protein at 1 mM (reference value: 1228 cpm)
Mus musculus [5] = species on record: Mus musculus; test: Inhibition of peptidyl lysine hydroxylase in mouse L929 fibroblasts assessed as release of [3H] as [3H]OH from [4,5-3H]lysylprotocollagen measured per mg of protein at 0.05 mM (reference value: 1228 cpm)
L929 = test: Inhibition of collagen biosynthesis in mouse L929 fibroblasts assessed as [3H]lysine/[14C]proline incorporation into protein at 5 mM; format: functional, cell-based
Mus musculus [6] = species on record: Mus musculus; test: Inhibition of peptidyl lysine hydroxylase in mouse L929 fibroblasts assessed as release of [3H] as [3H]OH from [4,5-3H]lysylprotocollagen measured per mg of protein at 0.20 mM (reference value: 1228 cpm)
Mus musculus [7] = species on record: Mus musculus; test: Inhibition of peptidyl lysine hydroxylase in mouse L929 fibroblasts assessed as release of [3H] as [3H]OH from [4,5-3H]lysylprotocollagen measured per mg of protein at 5 mM (reference value: 1228 cpm)
P388 [8] = test: Cytotoxicity against mouse P388 cells assessed as growth inhibition at 0.55 mM after 72 hrs by hemocytometry; format: functional, cell-based
Mus musculus [9] = species on record: Mus musculus; test: Inhibition of peptidyl lysine hydroxylase in mouse L929 fibroblasts
Mus musculus [10] = species on record: Mus musculus; test: Inhibition of peptidyl lysine hydroxylase in mouse L929 fibroblasts assessed as release of [3H] as [3H]OH from [4,5-3H]lysylprotocollagen measured per mg of protein at 2 mM (reference value: 1228 cpm)
Mus musculus [11] = species on record: Mus musculus; test: Inhibition of peptidyl lysine hydroxylase in mouse L929 fibroblasts assessed as release of [3H] as [3H]OH from [4,5-3H]lysylprotocollagen measured per mg of protein at 0.01 mM (reference value: 1228 cpm)
[12] = Competitive inhibition of Escherichia coli B lysyl-tRNA ligase using lysine as substrate after 15 mins by double reciprocal plot analysis; conditions: read-out: Ki(app)
P388 [13] = test: Cytotoxicity against mouse P388 cells assessed as growth inhibition at 0.15 mM after 72 hrs by hemocytometry; format: functional; conditions: P388, 72 h, read-out: GI

Description for Escherichia coli B: Activity of Escherichia coli B lysyl-tRNA ligase after 15 mins by Lineweaver-Burk plot analysis

SMILES: NCCSC[C@H](N)C(=O)O
- pKa [1]: 9.52
- Km (Escherichia coli B): 1.4 µM
- inhibition of growth at 500 µM (P388 [2]): 93%

SMILES: NCC(F)(F)CCC(N)C(=O)O (racemic)
- Activity (Mus musculus [3]): 1230 cpm
- Activity (Mus musculus [4]): 1070 cpm
- Activity (Mus musculus [5]): 1270 cpm
- pKa [1]: 6.88
- Activity (L929): inactive
- Activity (Mus musculus [6]): 1270 cpm
- Activity (Mus musculus [7]): 920 cpm
- Km (Escherichia coli B): 1310 µM
- growth inhibition (GI) (P388 [8]): inactive
- inhibition (Mus musculus [9]): inactive
- Activity (Mus musculus [10]): 1080 cpm
- Activity (Mus musculus [11]): 1220 cpm

SMILES: CC(C)(CN)CCC(N)C(=O)O (racemic)
- pKa [1]: 10.2
- growth inhibition (GI) (P388 [8]): inactive
- Ki [12]: 16.2 mM

SMILES: NC(=O)NO [HYDROXYUREA]
- inhibition of growth at 150 µM (P388 [13]): 87%

SMILES: NCCCC[C@H](N)C(=O)O [LYSINE]
- pKa [1]: 10.6
- Km (Escherichia coli B): 0.5 µM
